Experimental data: a melting point compilation (Tetko et al.)

conditions: a range is the spread between reports

Row | Structure (SMILES) | melting point
1 | COC(=O)c1c(Cl)c(Cl)c(C(=O)OC)c(Cl)c1Cl | 155 to 157 °C
2 | O=S(Cl)Cl | -105 to -104 °C
3 | Oc1ccccc1O | 105 to 106 °C
4 | Cc1cccc(O)c1O | 65 to 68 °C
5 | O=[N+]([O-])c1c(O)cccc1O | 82 to 83 °C
6 | O=Cc1ccnc2ccccc12 | 50 to 51 °C
7 | CC(=O)OCc1ccccc1 | -51.3 to -51 °C
8 | Oc1ccc2cccc(O)c2c1 | 180 to 182 °C
9 | c1ccc(/N=N/c2ccccc2)cc1 | 67 to 69 °C
10 | CCCCCCCCCCCCCCCCCCCCCC(=O)O | 76 to 81 °C
11 | CCCCCCC(O)CCCC (stereo not given) | -4 to -3.5 °C
12 | Brc1ccccc1 | -31 to -30.6 °C
13 | CCOC(=O)c1ccc([N+](=O)[O-])o1 | 100 to 101 °C
14 | Cc1cc(C)c(C)c(Br)c1C | 56 to 60 °C
15 | OC1(c2ccccc2)CCCCC1 | 60 to 63.5 °C
16 | O=[N+]([O-])c1cc(C(F)(F)F)ccc1Cl | -3 to -2.5 °C
17 | Cc1cc([N+](=O)[O-])ccc1Cl | 42.5 to 43 °C
18 | CC=O | -128 to -123 °C
19 | Oc1ccc(Cl)cc1 | 41 to 44 °C
20 | O=[N+]([O-])c1cccc2c([N+](=O)[O-])cccc12 | 216 to 219 °C
21 | Cl[SiH](Cl)Cl | -127 to -126 °C
22 | Cc1ccc(S)c(S)c1 | 29 to 31 °C
23 | C=CC(=O)OCCCC | -64.6 to -64 °C
24 | CCCC | -138 to -137 °C
25 | C1CCNCC1 | -11 to -7 °C

Row | Structure (SMILES) | melting point
26 | CCOc1ccc(C(C)=O)cc1 | 37 to 39 °C
27 | CC(C)(C)c1ccc(C(O)CCCN2CCC(C(O)(c3ccccc3)c3ccccc3)CC2)cc1 (stereo not given) | 147 to 148 °C
28 | CCC1(c2ccccc2)C(=O)NC(=O)NC1=O | 174 to 176 °C
29 | O=C=Nc1cccc(N=C=O)c1 | 48 to 50 °C
30 | CCOC(=O)CC(C)C | -99.3 to -99 °C
31 | CCCC#CCCC | -103 to -101 °C
32 | C=Cc1ccc(N)cc1 | 23.5 to 26 °C
33 | Brc1cc(Br)c(Br)cc1Br | 178 to 182 °C
34 | COc1ccc(OC)c(N)c1 | 80 to 82.5 °C
35 | Cc1c(F)c(F)c(F)c(F)c1F | -30 to -29.8 °C
36 | O=C(/C=C/c1ccc2ccccc2c1)/C=C/c1ccc2ccccc2c1 | 242 to 245 °C
37 | CCC(=O)c1ccc(O)cc1O | 99 to 100 °C
38 | Cc1cc(Cl)c(C)cc1Cl | 68 to 71 °C
39 | O=C1CCCc2ccccc21 | 7 to 8 °C
40 | CCCCCCc1ccc(O)cc1O | 65 to 68 °C
41 | CCOC(=O)C(C)(C)C | -90 to -89.5 °C
42 | O=[N+]([O-])c1ccc(Br)cc1 | 126 to 127 °C
43 | CC1CO1 (stereo not given) | -112 °C
44 | COC(=O)CCC(=O)O | 57.5 to 58 °C
45 | Cc1ccc(C)c(N)c1 | 12 to 15.5 °C
46 | Clc1ccc(-c2ccccc2)cc1 | 78 to 78.8 °C
47 | CCCCCCCC(=O)OCC | -47 to -43.1 °C
48 | Cc1c(N)c(=O)n(-c2ccccc2)n1C | 107 to 109 °C
49 | c1ccc(-c2ccccn2)nc1 | 70 to 72 °C
50 | N#Cc1ccc(C#N)cc1 | 224 to 226 °C

Row | Structure (SMILES) | melting point
51 | C1=CCCCCCC1 | -16 to -12 °C
52 | O=c1cn[nH]c(=O)[nH]1 | 274 to 276 °C
53 | O=[N+]([O-])c1ccccc1O | 44 to 46 °C
54 | Oc1ccccc1Cl | 7 to 9.8 °C
55 | O=c1[nH]c2ccccc2o1 | 138 to 140 °C
56 | COc1ccc(Br)c(OC)c1 | 25 to 26 °C
57 | CCC1(C2=CCCCC2)C(=O)NC(=O)NC1=O | 172 to 173 °C
58 | Cn1nnc2ccccc21 | 64.5 to 65 °C
59 | CC(C)(C)Br | -20 to -16 °C
60 | CC(=O)Nc1ccccc1[N+](=O)[O-] | 92 to 94 °C
61 | CC(=O)N[C@@H](Cc1ccc(O)cc1)C(=O)O | 149 to 153 °C
62 | c1ccc(C2CO2)cc1 (stereo not given) | -37 to -35.6 °C
63 | CCCCCC(=O)CCCCC | 14.5 to 15 °C
64 | Fc1c(F)c(F)c(-c2c(F)c(F)c(F)c(F)c2F)c(F)c1F | 67 to 68 °C
65 | CC(C)CCCC(C)C1CCC2C3CC(O)C4(O)CC(O)CCC4(C)C3CCC12C (stereo not given) | 237 to 238 °C
66 | CCCC1CCCC1 | -117 °C
67 | Cc1cc(O)cc(C)c1Cl | 114 to 115 °C
68 | CC(C)(C)CO | 50 to 54 °C
69 | CCCCCC1CCCCC1 | -58 to -57.5 °C
70 | CC(=O)c1ccccc1C(=O)O | 114 to 117 °C
71 | CCCCCCCO | -36 to -33.2 °C
72 | N#Cc1c[nH]cc1-c1cccc2c1OC(F)(F)O2 | 199 °C
73 | CCCCSCCCC | -80 to -79.7 °C
74 | O=C(Cl)c1ccc2ccccc2c1 | 50 to 51 °C
75 | COc1ccc(/N=N/c2ccccc2)cc1 | 53 to 56 °C

Row | Structure (SMILES) | melting point
76 | O=C(O)CCc1c[nH]c2ccccc12 | 134 °C
77 | c1ccc(CN(Cc2ccccc2)c2ccccc2)cc1 | 69 to 70 °C
78 | c1ccncc1 | -42 to -41.6 °C
79 | CCCCCO | -79 to -78 °C
80 | c1ccc2ncccc2c1 | -15 to -14.8 °C
81 | CCSC | -106 °C
82 | O=Cc1ccc2ccccc2n1 | 68 to 71 °C
83 | ClCC(Cl)Cl | -37 to -35 °C
84 | c1ccc(P(CP(c2ccccc2)c2ccccc2)c2ccccc2)cc1 | 119 to 121 °C
85 | O=C(Cl)c1ccc(Br)cc1 | 40 to 42 °C
86 | Sc1nc2ccccc2[nH]1 | 298 °C
87 | C=CCCCCCCCCCCCCCCCC | 16 to 18 °C
88 | C=C(C)CCCCCC | -78 to -77.8 °C
89 | CC=C(C)CC | -138 to -135 °C
90 | COc1ccc(C(=O)O)cc1 | 184 to 185 °C
91 | C/C=C/C | -106 to -105 °C
92 | O=C(O)CCCCCCC(=O)O | 143 to 144 °C
93 | c1ccc(CSc2ccccc2)cc1 | 41 to 43.5 °C
94 | COc1ccc(N)cc1Cl | 50 to 52.5 °C
95 | C=C(C#N)C(=O)OCC | -22.5 to -22 °C
96 | O=C(Oc1ccccc1)Oc1ccccc1 | 79 to 83 °C
97 | CCOC(=O)C(NC=O)C(=O)OCC | 48.5 to 53 °C
98 | O=C(O)C(S)C(S)C(=O)O (stereo not given) | 193 to 197 °C
99 | CCOC(=O)c1ccccn1 | 1 to 2 °C
100 | O=C(O)c1cc([N+](=O)[O-])cc([N+](=O)[O-])c1 | 205 to 206 °C

Row | Structure (SMILES) | melting point
101 | c1ccc(-c2nnc(-c3ccccc3)o2)cc1 | 139 to 140 °C
102 | Cc1ccccc1C(C)C | -72 to -71.5 °C
103 | CCCCCCCCCCCCCCCC | 18 to 18.1 °C
104 | O=Cc1ccc(Cl)cc1Cl | 71 to 73 °C
105 | CC(C)(Br)C(=O)O | 44 to 48.5 °C
106 | NNC(=O)c1ccccc1[N+](=O)[O-] | 121 to 124 °C
107 | CC(=O)C(C)=O | -3 to -1.2 °C
108 | C1CCCCCCC1 | 12 to 15 °C
109 | COC(=O)c1ccc(O)cc1O | 118 to 120 °C
110 | COc1cc(C(=O)O)cc(O)c1OC | 195 to 196 °C
111 | O=C[C@H](O)[C@@H](O)[C@@H](O)[C@H](O)CO | 166 to 167 °C
112 | O=[N+]([O-])c1ccc(F)cc1F | 9 to 10 °C
113 | Cc1cc2ccccc2[nH]1 | 58 to 61 °C
114 | CCCCCCCCC(=O)CC | 9 to 13 °C
115 | COc1ccc(C(=O)O)c(OC)c1OC | 100 to 101 °C
116 | O=C(O)/C=C/c1ccccc1[N+](=O)[O-] | 244 to 247 °C
117 | C#CC(C)(C)O | 2.6 to 3 °C
118 | Cc1ccc2c(c1N)C(=O)c1ccccc1C2=O | 205 to 206 °C
119 | Oc1ccc(NCc2ccccc2)cc1 | 84 to 88 °C
120 | Nc1ccc2c(c1)CCC2 | 35 to 37.5 °C
121 | NCCCCCCCN | 28 to 28.9 °C
122 | COC(F)(F)C(Cl)Cl | -36 to -35 °C
123 | C(=Nc1ccccc1)Nc1ccccc1 | 138 to 142 °C
124 | CC(CCC(=O)O)CC(=O)O (stereo not given) | 100 to 101 °C
125 | NC(=O)Oc1ccccc1 | 150 to 151 °C

Row | Structure (SMILES) | melting point
126 | O=S(=O)(c1ccc(Cl)cc1)c1ccc(Cl)cc1 | 148 to 149 °C
127 | Clc1ccc(SSc2ccc(Cl)cc2)cc1 | 68 to 73 °C
128 | CNC(=O)CSP(=S)(OC)OC | 51.5 to 52 °C
129 | ICI | 5 to 6.1 °C
130 | C#CCCCCCCCCCCCCCCCC | 22.5 to 27 °C
131 | C=CCCCCCCC | -83.2 to -81 °C
132 | C#CCCC(=O)O | 56 to 57.7 °C
133 | CCOc1ccc2ccccc2c1C=O | 112 to 115 °C
134 | CCC#CC(C)C | -117 °C
135 | OC1C2CCC(C2)C1O (stereo not given) | 139 to 141 °C
136 | O=C(O)c1ccccc1C(=O)c1ccccc1 | 127 to 129 °C
137 | NC(=O)c1cccs1 | 181 to 182 °C
138 | CC1CC1 | -177 °C
139 | c1ccc([Si](c2ccccc2)(c2ccccc2)c2ccccc2)cc1 | 236 to 237 °C
140 | COc1ccc(OC)cc1 | 56 to 60 °C
141 | C=C(C)Cl | -138 to -137 °C
142 | CCCCCCCCC(C)C | -49 to -48.9 °C
143 | CCC | -188 °C
144 | C=Cc1ccc(O)cc1 | 73 to 73.5 °C
145 | OCC(Cl)(Cl)Cl | 18 to 19 °C
146 | NC(=O)c1c(Cl)cccc1Cl | 198 to 199 °C
147 | COc1ccc(C=O)c2ccccc12 | 34 to 34.8 °C
148 | CC(C)C(C)(C)C(C)(C)C | -36.4 to -36 °C
149 | COc1ccc(C(=O)c2ccccc2)c(O)c1 | 64 to 65.5 °C
150 | NC(=O)NCc1ccccc1 | 148 to 149 °C

Row | Structure (SMILES) | melting point
151 | O=C(O)c1cc([N+](=O)[O-])ccc1Cl | 166 to 167 °C
152 | O=C(O)CO | 77 to 80 °C
153 | CC(=O)Oc1ccccc1OC(C)=O | 64 to 64.5 °C
154 | CCCCCCC(=O)OCC | -66.1 to -66 °C
155 | Cc1ccc(-c2ccccc2)cc1 | 46 to 49.5 °C
156 | O=C(Cc1ccccc1)Cc1ccccc1 | 32 to 35 °C
157 | CCCCC(C)C | -118 °C
158 | OC(C(F)(F)F)C(F)(F)F | -4 to -3 °C
159 | CCNC(=S)NCC | 77 to 78 °C
160 | CCCCCCCCCCCCCCCCCCCCCCC | 47.6 to 49 °C
161 | Clc1cccc(-c2ccccc2)c1 | 16 to 18 °C
162 | COc1ccc(N)c(OC)c1 | 33.5 to 35 °C
163 | O=C1C=Cc2cccc3cccc1c23 | 154 °C
164 | Cc1ccc2ccccc2c1 | 33 to 34.4 °C
165 | O=C(OCc1ccccc1)c1ccccc1C(=O)OCc1ccccc1 | 41 to 44 °C
166 | Nc1cccc(Oc2ccccc2)c1 | 36 to 37 °C
167 | N#Cc1cc(Cl)ccc1N | 96 to 97 °C
168 | Cc1cccc(C(=O)O)c1 | 109 to 112 °C
169 | N#Cc1cc(Cl)cc(Cl)c1 | 64 to 66 °C
170 | CCCCCCCCCCCC(=O)OC | 5 to 5.2 °C
